pIC50: −log10 of the molar value.
What was measured:
[1] = target: human orexin-2 receptor (hOX2R) (Homo sapiens (Human), UniProt O43614); experiment: Measurement of orexin antagonistic activity (intracellular Ca2+ fluorescence, FDSS), hOX2R; assay type: cell-based; settings: CHO cells forcibly expressing hOX2R; ligand peptide (modified human orexin-A) 3 nM; maximum fluorescence intensity; read-out: IC50 Value OX2
Protocol: (§1) The antagonistic activities of the test compounds on human orexin-1 receptor (hOX1R) and orexin-2 receptor (hOX2R) were measured by modifying from the method described in literature (Toshikatsu Okumura et al., Biochemical and Biophysical Research Communications 280, 976-981, 2001). Chinese hamster ovary (CHO) cells forcibly expressing the hOX1R and hOX2R were seeded into a 96 well Black clear bottom plate (Nunc) at 20,000 cells per well, which were cultured in Ham's F-12 medium containing 0.1 mM MEM non-essential amino acids, 0.5 mg/ml G418, 10% fetal bovine serum (all by Invitrogen) for 16 hours under the conditions of 37° C., 5% CO2. After removing the medium, 100 μL of 0.5 μM Fluo-4AM ester (Dojin) in an assay buffer (25 mM HEPES (Dojin), Hank's balanced salt solution (Invitrogen), 0.1% bovine serum albumin, 2.5 mM probenecid, 200 μg/ml Amaranth (all by Sigma-Aldrich), pH 7.4) was added and the cells were incubated for 60 minutes at 37° C., 5% CO2. After removing the assay buffer containing […] ester, the test compound was dissolved in dimethyl sulfoxide to be 10 mM and diluted with the assay buffer, 150 μL of which was added and incubated for 30 minutes.
(§2) The reaction was measured for the fluorescence intensity of each well every second for 3 minutes using Functional Drug Screening System (FDSS; Hamamatsu Photonics K.K.), and the antagonistic activity was determined using the maximum fluorescence intensity as the indicator of intracellular Ca2+ concentration.

[2] = target: human orexin-1 receptor (hOX1R) (Homo sapiens (Human), UniProt O43613); experiment: Measurement of orexin antagonistic activity (intracellular Ca2+ fluorescence, FDSS), hOX1R; assay type: cell-based; settings: CHO cells forcibly expressing hOX1R; ligand peptide (modified human orexin-A) 300 pM; maximum fluorescence intensity; read-out: IC50 Value OX1
human orexin-1 receptor (hOX1R), sequence (O43613 whole entry): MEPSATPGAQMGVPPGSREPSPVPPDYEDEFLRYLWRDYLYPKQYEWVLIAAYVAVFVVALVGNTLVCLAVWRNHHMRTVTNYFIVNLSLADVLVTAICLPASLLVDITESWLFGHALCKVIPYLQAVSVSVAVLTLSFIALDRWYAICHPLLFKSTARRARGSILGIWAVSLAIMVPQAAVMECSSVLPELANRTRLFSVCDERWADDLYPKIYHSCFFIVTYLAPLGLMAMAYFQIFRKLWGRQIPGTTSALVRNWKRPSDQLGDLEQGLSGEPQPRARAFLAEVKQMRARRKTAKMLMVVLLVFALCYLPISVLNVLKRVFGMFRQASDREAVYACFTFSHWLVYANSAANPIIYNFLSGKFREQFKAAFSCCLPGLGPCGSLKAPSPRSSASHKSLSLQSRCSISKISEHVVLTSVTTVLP
Protocol: as §1, with “Chinese” for “The antagonistic activities of the test compounds on human orexin-1 receptor (hOX1R) and orexin-2 receptor (hOX2R) were measured by modifying from the method described in literature (Toshikatsu Okumura et al., Biochemical and Biophysical Research Communications 280, 976-981, 2001). Chinese”
as §2

human orexin-2 receptor (hOX2R), sequence (O43614 whole entry): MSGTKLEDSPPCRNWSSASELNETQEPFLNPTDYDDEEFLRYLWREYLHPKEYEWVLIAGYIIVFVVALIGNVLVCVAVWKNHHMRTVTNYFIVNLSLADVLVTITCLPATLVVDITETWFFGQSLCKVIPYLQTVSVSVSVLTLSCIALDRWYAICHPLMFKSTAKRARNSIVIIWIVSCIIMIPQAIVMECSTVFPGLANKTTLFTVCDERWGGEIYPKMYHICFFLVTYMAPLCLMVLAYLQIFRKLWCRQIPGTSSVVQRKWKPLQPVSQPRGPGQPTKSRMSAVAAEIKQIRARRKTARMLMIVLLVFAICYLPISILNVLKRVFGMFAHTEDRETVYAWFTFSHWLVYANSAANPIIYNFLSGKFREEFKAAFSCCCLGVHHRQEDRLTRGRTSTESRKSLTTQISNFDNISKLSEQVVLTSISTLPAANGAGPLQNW

Compound | pIC50 [1] | pIC50 [2]
Cc1ccc(-c2ncccn2)c(C(=O)N2CCCOC2Cn2ccc(-c3ccc(F)cn3)n2)c1 (single isomer, unassigned; (-)) [Example 30] | 8.52 | 8.59
Cc1ccc(-n2nccn2)c(C(=O)N2CCCOC2Cn2cc(-c3ccc(F)cc3)cn2)n1 (single isomer, unassigned; (-)) [Example 31, (−)-(2-[[4-(4-fluorophenyl)-1H-pyrazol-1-yl]methyl]-1,3-oxazinan-3-yl) [6-methyl-3-(2H-l,2,3-triazol-2-yl)pyridin-2-yl] methanone] | 8.14 | 7.96
Cc1ccc(-c2ncccn2)c(C(=O)N2CCCOC2Cn2cc(-c3ccc(F)cc3)cn2)n1 (single isomer, unassigned; (-)) [Example 32, (−)-(2-[[4-(4-fluorophenyl)-1H-pyrazol-1-yl]methyl]-l,3-oxazinan-3-yl)[6-methyl-3-(pyrimidin-2-yl)pyridin-2-yl] methanone] | 7.65 | 7.46
O=C(c1cc(F)ccc1-c1ncccn1)N1CCCOC1Cn1ccc(-c2ccc(F)cn2)n1 (single isomer, unassigned; (-)) [Example 34, (−)-[2-[[3-(5-fluoropyridin-2-yl)-1H-pyrazol-1-yl]methyl]-l,3-oxazinan-3-yl] [5-fluoro-2-(pyrimidin-2-yl)phenyl]methanone] | 8.21 | 8.66
Cc1ccc(-n2nccn2)c(C(=O)N2CCCOC2Cc2noc(-c3ccc(F)cn3)n2)c1 (single isomer, unassigned; (-)) [Example 36, (−)-[2-[[5-(5-fluoropyridin-2-yl)-1,2,4-oxadiazol-3-yl]methyl]-1,3-oxazinan-3-yl] [5-methyl-2-(2H-1,2,3-triazol-2-yl)phenyl] methanone] | 8.16 | 8.42
Cc1ccc(-n2nccn2)c(C(=O)N2CCCOC2Cc2noc(-c3ccc(F)cc3)n2)n1 (single isomer, unassigned; (-)) [Example 38, (−)-[2-[[5-(4-fluorophenyl)-1,2,4-oxadiazol-3-yl]methyl]-1,3-oxazinan-3-yl] [6-methyl-3-(2H-1,2,3-triazol-2-yl)pyridin-2-yl] methanone] | 8.14 | 8.68
Cc1ccc(-n2nccn2)c(C(=O)N2CCOC2Cc2cnn(-c3ccc(F)cn3)c2)c1 (single isomer, unassigned; (-)) [Example 46, (−)-[2-{[1-(5-Fluoropyridin-2-yl)-1H-pyrazol-4-yl]methyl}-1,3-oxazolidin-3-yl][5-methyl-2-(2H-1,2,3-triazol-2-yl)phenyl]methanone] | 7.41 | 7.50

Further compounds by rising pIC50 [1], results first:

pIC50 [1] | pIC50 [2] | Compound
7.92 | 8.57 | Cc1ccc(-n2nccn2)c(C(=O)N2CCOC2Cc2ccn(-c3ccc(F)cn3)n2)c1 (single isomer, unassigned; (-)) [Example 45, (−)-[2-{[1-(5-Fluoropyridin-2-yl)-1H-pyrazol-3-yl]methyl}-1,3-oxazolidin-3-yl][5-methyl-2-(2H-1,2,3-triazol-2-yl)phenyl]methanone]
8.77 | 8.96 | Cc1ccc(-n2nccn2)c(C(=O)N2CCCOC2Cc2noc(-c3ccc(F)cc3)n2)c1 (single isomer, unassigned; (-)) [Example 37, (−)-[2-[[5-(4-fluorophenyl)-1,2,4-oxadiazol-3-yl]methyl]-1,3-oxazinan-3-yl] [5-methyl-2-(2H-1,2,3-triazol-2-yl)phenyl] methanone]
9.00 | 9.00 | Cc1ccc(-c2ncccn2)c(C(=O)N2CCCOC2Cn2ccc(-c3ccc(F)cc3)n2)c1 (single isomer, unassigned; (-)) [Example 41, (−)-[2-{[3-(4-Fluorophenyl)-1H-pyrazol-1-yl]methyl}-1,3-oxazinan-3-yl][5-methyl-2-(pyrimidin-2-yl)phenyl]methanone]
